Here are results for 19 molecules from patent US20240174636A1, “NOVEL INDOLEAMINE 2,3-DIOXYGENASE INHIBITORS, PROCESSES FOR THE PREPARATION THEREOF AND PHARMACEUTICAL COMPOSITIONS COMPRISING THE SAME” (YUHAN CORPORATION, priority 2021, published 2024).

Each structure is given as a SMILES string.

Data set [1] has as its target T1, IDO1 (Homo sapiens, UniProt P14902). Kind of data set: IDO1 cellular activity using Hela cells (IFN-gamma induced IDO expression, kynurenine absorbance at 480 nm). The class given is cell-based. To be noted: IDO induced with interferon gamma 50 ng/ml, 24 h compound incubation, read-out: Inhibitory Activity (IC50). On the procedure: Hela cells were seeded at a density of 20000 cells/well in 100 μl of a culture medium (EMEM supplemented with 10% FBS, penicillin 100 U/ml, and streptomycin 100 μg/ml) in a tissue culture-treated 96 well plate. The cells were cultured in a 5% carbon dioxide incubator for 24 hours, treated with recombinant human interferon gamma at the concentration of 50 ng/ml, and then cultured for 48 hours in a 5% carbon dioxide incubator to induce IDO expression.
The activities were measured using IDO1 cellular activity-measuring substrate (IDO1 cellular activity quickDetect supplements catalog: #62000-2, BPS Bioscience). Specifically, an assay medium was prepared by diluting IDO1 assay medium substrate 1 and IDO1 assay medium supplement 2 in a culture medium at a ratio of 1:100, respectively. The test compounds were diluted to the predetermined concentrations in the fresh assay medium. After removing the culture medium using a multi-pipet, 200 μl of each assay medium containing the test material was added into the respective well, followed by incubating in a 5% carbon dioxide incubator for 24 hours. The next day, 140 μl of culture medium from each well was transferred to a new 96-well plate. 10 μl of 6.1N trichloroacetic acid was added into each well, which was then cultured in a 50° C. incubator for 30 minutes. The plate was centrifuged at 2500 rpm for 10 minutes to settle any sediment. A detection reagent solution was prepared by diluting the detection reagent (component D kit, catalog: #62000-2, BPS Bioscience) 50-fold in acetic acid. 100 μl of the supernatant taken from the centrifuged plate was transferred to a new transparent 96-well plate and then 100 μl of the detection reagent solution was added thereto. After reacting at room temperature for 10 minutes, absorbance was measured at 480 nm wavelength. For analysis of the results, the absorbance (At) of the well containing Hela cells in which IDO protein expression was induced without treatment of an inhibitor was 100%; and the absorbance (Ab) of the well containing Hela cells in which IDO protein expression was not induced was 0. The % absorbance was calculated according to the following equation: % Absorbance=(A−Ab)/(At−Ab), A=absorbance of the well treated with the test compound.
The results obtained by calculating the 50% inhibitory concentration (C50) of each compound, from the absorbance values obtained as described above, are shown in Table 1 below.

In data set [2] the target is T1, IDO1. Kind of data set: IDO1 cellular activity using HEK293 cells transfected with IDO1 expression vector. The data set is classed as cell-based. Also on record: host or cells: HEK293 cells, transient transfection with Lipofectamine 2000. Particulars: 24 h compound incubation, read-out: Inhibitory Activity (IC50). On the procedure: HEK293 cells were seeded at a density of 30000 cells/well in 100 μl of a culture medium (DMEM supplemented with 10% FBS, penicillin 100 U/ml, and streptomycin 100 μg/ml) in a tissue culture-treated 96 well plate. The cells were cultured in a 5% carbon dioxide incubator for 24 hours, transfected with the IDO1 expression vector (component A in IDO1 cell-based assay kit, catalog #72031, BPS Bioscience) using Lipofectamine 2000 (Life Technologies, #11668027), and then cultured for 24 hours in a 5% carbon dioxide incubator to express the IDO protein.
The activities were measured using a IDO1 cell-based assay kit (catalog #72031, BPS Bioscience). Specifically, an assay medium was prepared by diluting IDO1 assay medium substrate 1 and IDO1 assay medium supplement 2 in a culture medium at a ratio of 1:100, respectively. The test compounds were diluted to the predetermined concentrations in the fresh assay medium. After removing the culture medium using a multi-pipet, 200 μl of each assay medium containing the test material was added into respective well, followed by incubating in a 5% carbon dioxide incubator for 24 hours. The next day, 140 μl of culture medium from each well was transferred to a new 96-well plate. 10 μl of 6.1N trichloroacetic acid was added into each well, which was then cultured in a 50° C. incubator for 30 minutes. The plate was centrifuged at 2500 rpm for 10 minutes to settle any sediment. A detection reagent solution was prepared by diluting the detection reagent (component D in IDO1 cell-based assay kit, catalog #72031 BPS Bioscience) 50-fold in acetic acid. 100 μl of the supernatant taken from the centrifuged plate was transferred to a new transparent 96-well plate and then 100 μl of the detection reagent solution was added thereto. After reacting at room temperature for 10 minutes, absorbance was measured at 480 nm wavelength. For analysis of the results, the absorbance (At) of the well containing HEK293 cells in which IDO protein was expressed without treatment of an inhibitor was 100%; and the absorbance (Ab) of the well containing HEK293 cells in which IDO protein was not expressed was 0. The % absorbance was calculated according to the following equation: % Absorbance=(A−Ab)/(At−Ab), A=absorbance of the well treated with the test compound.

Data set [3] in a line: Pharmacokinetics through oral administration in normal rats. The class given is in vivo. To be noted: 10 mg/5 mL/kg. On the procedure: The pharmacokinetics of the compounds of Examples 2, 5 and 25 and BMS-986205 (control) were measured in rats, respectively. The compounds of Examples 2, 5 and 25 and BMS-986205 (control) were each suspended in 0.5% methyl cellulose containing 0.2% Tween 80 and then orally administered to rats at a dose of 10 mg/5 mL/kg. Blood samples were collected from the rat in predetermined times. The concentration of the compound in each sample was analyzed to obtain the blood concentration profiles (FIG. 1).

T1 sequence (P14902 whole entry): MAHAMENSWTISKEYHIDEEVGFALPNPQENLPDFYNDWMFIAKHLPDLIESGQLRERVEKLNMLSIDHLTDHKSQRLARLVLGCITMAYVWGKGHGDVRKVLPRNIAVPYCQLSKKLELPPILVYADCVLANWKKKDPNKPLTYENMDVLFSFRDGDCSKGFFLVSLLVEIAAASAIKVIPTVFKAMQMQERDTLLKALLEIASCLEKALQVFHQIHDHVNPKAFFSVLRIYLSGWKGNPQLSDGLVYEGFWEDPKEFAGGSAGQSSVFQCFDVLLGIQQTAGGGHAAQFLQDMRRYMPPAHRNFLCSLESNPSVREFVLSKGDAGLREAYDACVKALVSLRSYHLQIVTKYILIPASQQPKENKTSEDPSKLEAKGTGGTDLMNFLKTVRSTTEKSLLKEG

Turning to `C[C@H](C[C@H]1CC[C@@H](c2ccnc3ccc(F)cc32)CC1)Nc1nc2cccc(Cl)c2s1` [Example 18, 7-chloro-N-((R)-1-((cis)-4-(6-fluoroquinolin-4-yl)cyclohexyl)propan-2-yl)benzo[d]thiazol-2-amine], the IC50 was 0.0075 µM at IDO1 [1] and 0.004 µM on IDO1 [2].
Turning to `C[C@H](C[C@H]1CC[C@@H](c2ccnc3ccc(F)cc32)CC1)Nc1nc2ccc(F)cc2o1` [Example 29, 6-fluoro-N-((R)-1-((cis)-4-(6-fluoroquinolin-4-yl)cyclohexyl)propan-2-yl)benzo[d]oxazol-2-amine], the results for the IC50 at IDO1 [1] and on IDO1 [2] were 0.01 µM and 0.0099 µM, respectively.
In the case of `C[C@H](C[C@H]1CC[C@@H](c2ccnc3ccc(F)cc32)CC1)Nc1nc2ncccc2o1` [Example 32, N-((R)-1-((cis)-4-(6-fluoroquinolin-4-yl)cyclohexyl)propan-2-yl)oxazolo[4,5-b]pyridin-2-amine], the IC50 at IDO1 [1] is 0.0114 µM; on IDO1 [2] it was 0.0087 µM.
Take `C[C@H](C[C@H]1CC[C@@H](c2ccnc3ccc(F)cc32)CC1)Nc1nc2c(F)cccc2o1` [Example 28, 4-fluoro-N-((R)-1-((cis)-4-(6-fluoroquinolin-4-yl)cyclohexyl)propan-2-yl)benzo[d]oxazol-2-amine]: the IC50 is 0.012 µM on IDO1 [1] and 0.0086 µM on IDO1 [2].
Take `CCOc1ccc2nc(N[C@H](CC)C[C@H]3CC[C@@H](c4ccnc5ccc(F)cc54)CC3)sc2c1` [Example 20, 6-ethoxy-N-((R)-1-((cis)-4-(6-fluoroquinolin-4-yl)cyclohexyl)butan-2-yl)benzo[d]thiazol-2-amine]: the IC50 worked out at 0.024 µM at IDO1 [1] and 0.0143 µM at IDO1 [2].
In the case of `C[C@H](C[C@H]1CC[C@@H](c2ccnc3ccc(F)cc32)CC1)Nc1nc2ncc(Cl)cc2o1` [Example 31, 6-chloro-N-((R)-1-((cis)-4-(6-fluoroquinolin-4-yl)cyclohexyl)propan-2-yl)oxazolo[4,5-b]pyridin-2-amine], the IC50 is 0.0175 µM on IDO1 [1] and 0.0091 µM at IDO1 [2].
Consider `C[C@H](C[C@H]1CC[C@@H](c2ccnc3ccc(F)cc32)CC1)Nc1nc2ccc(Cl)cc2s1` [Example 13, 6-chloro-N-((R)-1-((cis)-4-(6-fluoroquinolin-4-yl)cyclohexyl)propan-2-yl)benzo[d]thiazol-2-amine], for which the IC50 was found to be 0.03 µM on IDO1 [1] and 0.0326 µM at IDO1 [2].
In the case of `C[C@H](C[C@H]1CC[C@@H](c2ccnc3ccc(F)cc32)CC1)Nc1nc2c(F)cc(F)cc2s1` [Example 17, 4,6-difluoro-N-((R)-1-((cis)-4-(6-fluoroquinolin-4-yl)cyclohexyl)propan-2-yl)benzo[d]thiazol-2-amine], the IC50 on IDO1 [1] came to 0.019 µM; at IDO1 [2], 0.0206 µM.
For `C[C@H](C[C@H]1CC[C@H](c2ccnc3ccc(F)cc32)CC1)Nc1c(F)c(=O)oc2cc(Cl)ccc12` [Example 10, 7-chloro-3-fluoro-4-(((R)-1-((trans)-4-(6-fluoroquinolin-4-yl)cyclohexyl)propan-2-yl)amino)-2H-chromen-2-one], the IC50 worked out at 0.0102 µM at IDO1 [1] and 0.0095 µM on IDO1 [2].
On the same counts, the results for `COc1ccc2nc(N[C@H](C)C[C@H]3CC[C@@H](c4ccnc5ccc(F)cc54)CC3)oc2c1` [Example 26, N-((R)-1-((cis)-4-(6-fluoroquinolin-4-yl)cyclohexyl)propan-2-yl)-6-methoxybenzo[d]oxazol-2-amine] are 0.015 µM and 0.0065 µM.
For `C[C@H](C[C@H]1CC[C@@H](c2ccnc3ccc(F)cc32)CC1)Nc1c(F)c(=O)oc2cc(Br)ccc12` [Example 11, 7-bromo-3-fluoro-4-(((R)-1-((cis)-4-(6-fluoroquinolin-4-yl)cyclohexyl)propan-2-yl)amino)-2H-chromen-2-one], the IC50 on IDO1 [1] is 0.0187 µM; at IDO1 [2] it was 0.0183 µM.
`COc1ccc2nc(N[C@H](C)C[C@H]3CC[C@@H](c4ccnc5ccc(F)cc54)CC3)sc2n1` [Example 22, N-((R)-1-((cis)-4-(6-fluoroquinolin-4-yl)cyclohexyl)propan-2-yl)-5-methoxythiazolo[5,4-b]pyridin-2-amine]: the IC50 at IDO1 [1] was 0.016 µM; at IDO1 [2] it was 0.0109 µM.
The like results for `CCOc1ccc2nc(N[C@H](C)C[C@H]3CC[C@@H](c4ccnc5ccc(F)cc54)CC3)sc2c1` [Example 19, 6-ethoxy-N-((R)-1-((cis)-4-(6-fluoroquinolin-4-yl)cyclohexyl)propan-2-yl)benzo[d]thiazol-2-amine] were, in that order, 0.014 µM and 0.008 µM.
`C[C@@H](C(=O)Nc1ccc(Cl)cc1)C1CCC(c2ccnc3ccc(F)cc23)CC1` (some centres unmarked) [BMS-986205, reference compound]: in data set [3], the “Area under the curve” value amounted to 3.9767 µg·h/mL and the “Time to maximum plasma concentration” value was determined as 1 h. For the same molecule, in data set [3] (suspension in 0.5% methyl cellulose containing 0.2% Tween 80), the Maximum plasma concentration turned out to be 656.8 ng/mL.
`C[C@H](C[C@H]1CC[C@H](c2ccnc3ccc(F)cc32)CC1)Nc1ncnc2cc(Cl)ccc12` [Example 4, 7-chloro-N-((R)-1-((trans)-4-(6-fluoroquinolin-4-yl)cyclohexyl)propan-2-yl)quinazolin-4-amine]: on IDO1 [1], the IC50 was 0.011 µM.
For the molecule `C[C@H](C[C@H]1CC[C@@H](c2ccnc3ccc(F)cc32)CC1)Nc1nc2ncc(Cl)cc2s1` [Example 23, 6-chloro-N-((R)-1-((cis)-4-(6-fluoroquinolin-4-yl)cyclohexyl)propan-2-yl)thiazolo[4,5-b]pyridin-2-amine], the IC50 on IDO1 [1] was determined as 0.027 µM; on IDO1 [2] it was 0.0076 µM.
As to `C[C@H](C[C@H]1CC[C@@H](c2ccnc3ccc(F)cc32)CC1)Nc1nc2cccnc2o1` [Example 30, N-((R)-1-((cis)-4-(6-fluoroquinolin-4-yl)cyclohexyl)propan-2-yl)oxazolo[5,4-b]pyridin-2-amine], the IC50 turned out to be 0.0235 µM at IDO1 [1] and 0.0191 µM at IDO1 [2].
For `C[C@H](C[C@H]1CC[C@H](c2ccnc3ccc(F)cc32)CC1)Nc1c(F)c(=O)oc2cc(Br)ccc12` [Example 12, 7-bromo-3-fluoro-4-(((R)-1-((trans)-4-(6-fluoroquinolin-4-yl)cyclohexyl)propan-2-yl)amino)-2H-chromen-2-one], the figures for the IC50 on IDO1 [1] and on IDO1 [2] were 0.0072 µM and 0.0112 µM, respectively.
Consider `CC[C@H](C[C@H]1CC[C@@H](c2ccnc3ccc(F)cc32)CC1)Nc1nc2ccc(Cl)cc2o1` [Example 27, 6-chloro-N-((R)-1-((cis)-4-(6-fluoroquinolin-4-yl)cyclohexyl)butan-2-yl)benzo[d]oxazol-2-amine], for which the IC50 at IDO1 [1] was 0.023 µM; on IDO1 [2], 0.0074 µM.
